biological target: High affinity cGMP-specific 3',5'-cyclic phosphodiesterase 9A (Homo sapiens, UniProt O76083); assay: PDE9 Inhibitory Activity Assay
Protocol: Human PDE9 (PDE9A2, GenBank Accession No. NM_001001567), full length with N-terminal GST tag, was purchased from BPS Bioscience. The fluorescence polarization assay for cyclic nucleotide phosphodiesterases was performed using an IMAP FP kit supplied by Molecular Devices, Sunnyvale, CA (product #R8139). IMAP technology has been applied previously to phosphodiesterase assays (Huang, W., et al., J. Biomol Screen, 2002, 7:215). Assays were performed at room temperature in 384-well microtiter plates with an incubation volume of 20.2 μL. Solutions of test compounds were prepared in DMSO and serially diluted with DMSO to yield 8 μL of each of 10 solutions differing by 3-fold in concentration, at 32 serial dilutions per plate. 100% inhibition is determined using a known PDE9 inhibitor, such as 1-(2-chlorophenyl)-6-[(2R)-3,3,3-trifluoro-2-methylpropyl]-1,5-dihydro-4H-pyrazolo[3,4-d]pyrimidine-4-one (BAY 73-6691) (Wunder et al, Mol. Pharmacol., 2005, 68 (6): 1775-81), (6-[(3S,4S)-4-methyl-1-(pyrimidin-2-ylmethyl) pyrrolidin-3-yl]-1-(tetrahydro-2H-pyran-4-yl)-1,5-dihydro-4H-pyrazolo[3,4-d]pyrimidin-4-one (PF-04447943) (Wager et al., ACS Chemical Neuroscience, 2010, 1:435-449). 0% of inhibition is determined by using DMSO (1% final concentrations). A Labcyte Echo 555 (Labcyte, Sunnyvale, CA) is used to dispense 200 nL from each well of the titration plate to the 384 well assay plate. Human PDE9A2 membrane preps were diluted to 1 ng/ml. […] PDE9 enzyme mix and compounds were mixed and incubated at room temperature for 30 min. Following which, FAMcGMP substrate was added, shaken and incubated for an additional 60 min at room temperature. The final concentration of human PDE9 membrane preparations were 0.5 ng/ml. The final concentration of FAM-cGMP was 50 nM. After the incubation period, the enzymatic reaction was stopped by addition of binding solution (IMAP-FP, Molecular Devices, comprised of 80% Solution A, 20% Solution B and a 1:600 dilution of binding reagent) to each well. The plates were shaken then incubated at room temperature for 1 h prior to determining the fluorescence polarization (mP) using a Perkin Elmer En Vision™ plate reader (Waltham, MA).

Chain of High affinity cGMP-specific 3',5'-cyclic phosphodiesterase 9A (O76083 whole entry): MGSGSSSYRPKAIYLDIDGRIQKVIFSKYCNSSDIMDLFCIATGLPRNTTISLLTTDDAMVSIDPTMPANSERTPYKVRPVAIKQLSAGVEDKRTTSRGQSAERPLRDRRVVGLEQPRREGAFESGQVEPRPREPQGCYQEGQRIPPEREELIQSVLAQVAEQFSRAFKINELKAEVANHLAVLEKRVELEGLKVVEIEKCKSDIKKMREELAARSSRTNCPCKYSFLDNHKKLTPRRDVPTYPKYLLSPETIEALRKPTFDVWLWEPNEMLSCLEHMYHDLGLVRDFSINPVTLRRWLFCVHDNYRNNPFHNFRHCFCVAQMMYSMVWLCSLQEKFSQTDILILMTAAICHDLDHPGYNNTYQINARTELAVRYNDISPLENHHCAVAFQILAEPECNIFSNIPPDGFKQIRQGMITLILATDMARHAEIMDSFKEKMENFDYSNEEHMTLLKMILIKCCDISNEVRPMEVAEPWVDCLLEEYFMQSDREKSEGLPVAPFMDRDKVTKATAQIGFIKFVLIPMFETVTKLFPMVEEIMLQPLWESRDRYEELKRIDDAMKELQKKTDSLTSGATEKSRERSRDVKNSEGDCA

Ki [nM] | SMILES
12.1 | CCC(c1ncc(OC(F)(F)F)cn1)N(C)c1nc2c(c(C#N)nn2C(C)c2ccc(C(F)(F)F)nc2)c(=O)[nH]1 (single isomer, unassigned; form 1) [US20260001888, Example 59]
50.7 | CCC(c1ncc(OC(F)(F)F)cn1)N(C)c1nc2c(c(C#N)nn2C(C)c2ccc(C(F)(F)F)nc2)c(=O)[nH]1 (single isomer, unassigned; form 4) [US20260001888, Example 62]
1.06 | CCC(c1ncc(OC(F)(F)F)cn1)N(C)c1nc2c(c(C#N)nn2C(C)c2ccc(C(F)(F)F)nc2)c(=O)[nH]1 (single isomer, unassigned; form 2) [US20260001888, Example 60]
0.17 | CCC(c1ncc(OC(F)(F)F)cn1)N(C)c1nc2c(c(C#N)nn2C(C)c2ccc(C(F)(F)F)nc2)c(=O)[nH]1 (single isomer, unassigned; form 3) [US20260001888, Example 61]
